This note sets out measurements from patent US9707244B2, “Compositions and methods for treating conditions that affect epidermis” (Gencia Corporation, priority 2013, dated 2017).

Data set [1] concerns AG16409 fibroblasts from a child. Kind of data set: 3D collagen cell culture system, young skin fibroblasts. It counts as cell-based, human. As to the method: The effects of Mitocreatine on skin fibroblasts cultured in a 3D matrix to better simulate in vivo milieu were examined. The cells were visualized by phase contrast light microscopy and their biological response to different concentrations of Mitocreatine evaluated. The 3D Collagen Cell Culture System from Millipore (Catalogue number ECM 675) was utilized.
All liquids were prepared according to manufacturer's instructions, and kept on ice. Tissue culture plates were coated with collagen by pipetting 500 μL of chilled Collagen Gel Solution into each well of a 24 well tissue culture plate. The plate was immediately transferred to a 37° C. incubator for 60 min to initiate polymerization of the collagen.
After the formation of the collagen gel, AG11073 and AG16409 cells were harvested and re-suspended at 4×10^5/mL and 1×10^6 cells were seeded onto the collagen gel. The cells were obtained using the procedure as described in Example 1.
After overnight incubation at 37° C. with 5% CO2 the media was replaced with fresh media containing various doses of Mitocreatine or the vehicle. Cells were visualized daily using phase contrast microscopy.
Fibroblasts from a person were cultured on a collagen matrix. Two days after seeding, cells were treated with a Mitocreatine at increasing amounts (0, 5, 15 and 25 μL). Five days post-treatment, collagen shrinkage was assayed by means of translucency.

In data set [2] the test system is Human hepatocellular liver carcinoma cell line HepG2. The experiment in a line: Survival of HepG2 cells treated with chemotherapeutic agents (DAPI fluorescence). It counts as cell-based. To be noted: Cetuximab, Gemcitabine or Temozolomide; 48 hours. As to the method: Fibroblasts were incubated with increasing amounts of Mitocreatine and certain anti-neoplastic agents, such as Cetuximab, Gemcitabine and Temozolomide. After incubation, cells were washed and the number of adherent (i.e. surviving) cells was assessed by DAPI fluorescence, which was measured utilizing a plate reader (PHERA Star FS from BMG Labtech). For these experiments two kinds of cells were used. Either the Human hepatocellular liver carcinoma cell line HepG2, or the BJ human fibroblast cells, which are established from normal human foreskin. […] Mitocreatine and the antineoplastic agent were added simultaneously.

Data set [3] relates to AG11073 senescent fibroblasts. Kind of data set: Intracellular collagen type I immunolabeling and image analysis. It counts as cell-based, human. As to the method:
The cell line AG11073 senescent fibroblasts, at passage 20, were plated onto a multi-chambered glass slide. Dulbecco's Modified Eagle Medium (DMEM) supplemented with the appropriate serum and antibiotics and either containing vehicle or 25 nM of Mitocreatine was added to each chamber. Cells were treated once daily with fresh media containing either vehicle or 25 nM mitocreatine for seven days. At the completion of the treatment period, the cells were washed with warm PBS and fixed with ice cold acetone. The chambers were removed and the slide immunoprobed with an anti-collagen type I antibody (ab292, Abcam). An Alexa-488 secondary antibody was used for detection and DAPI used to stain nuclei.
The cells utilized were human skin fibroblast acquired from Coriell Cell Repository. The cell line AG11073 is untransformed human skin fibroblasts from a person. The primary culture was initiated from explants of a 2 mm-punch biopsy. The cell line AG16409 is untransformed human skin fibroblasts from a person. Aged senescent fibroblasts (Coriell AG11073) were cultured for 7 days with either vehicle or 25 nM mitocreatine. Cells were probed with anti-collagen type I antibody (green) and DAPI (blue) for nuclei to assess changes in collagen type I expression.
Cell area and mean pixel intensity of the green fluorescence was acquired using Image J software. Image analysis supports an increase in cell area as well as an increase in intracellular collagen type I.
Image data from the immunolabeling of collage type I study was also used to quantify the amount of collagen immunolabeling in the AG11073 senescent fibroblast treated with 25 nM Mitocreatine in vehicle for seven days.

The nature of data set [4]: RIPT (Repeat Insult Patch Test) study. It counts as in vivo, human. The settings on record: 0.1% topical formulation.
A further data set concerns C57BL/6J mice. Kind of data set: Fore-limb grip strength test. To be noted: 10, 20, 30 mg/kg p.o. once daily for 30 days. The data set is classed as in vivo. As to the method: Group Setting: C57BL/6J mice were randomly assigned into five groups with different treatment started with balanced full-paw and fore-paw grip strength. Seventy five female mice were dosed at 4 PM for 30 consecutive days (qd). • 1. Vehicle (p.o. via oral gavage once daily for 30 days, n=15) • 2. Creatine (300 mg/kg, p.o. via oral gavage once daily for 30 days, n=15) • 3. Mitocreatine (10 mg/kg, p.o. via oral gavage once daily for 30 days, n=15) • 4. Mitocreatine (20 mg/kg, p.o. via oral gavage once daily for 30 days, n=15) • 5. Mitocreatine (30 mg/kg, p.o. via oral gavage once daily for 30 days, n=15). One hundred female mice were tested before dosing for a baseline of grip strength. 75 mice were selected and randomly assigned into 5 groups for different treatment. Seventy five mice (group 1-5) were test on day 31. Mice were allowed to acclimate to the testing room for at least 30 min before tested. All animals were marked on the tail with a permanent mark pen. Mouse was lowered towards the grid on the push-pull gauge until it grabbed with both front paws Animal was gently pulled backwards by the tail with an angle less than 15° until it released its grip of both fore-paws. The maximal fore-limb grip force was recorded on the strain gauge. Test was repeated 3 times with 15 min interval each time and the average was used. […]

Entries after “also recorded” stand apart in the source; their conditions may differ.

With `CN(CC(=O)NCCC[P+](c1ccccc1)(c1ccccc1)c1ccccc1)C(=N)N.Cl.[Cl-]` [Mitocreatine, N^2-[ammonio(imino)methyl]-N^2-methyl-N-[3-(triphenylphosphonio)propyl] glycinamide dichloride], in data set [1], the collagen translucency entry is “No change”. Further, the “survival of HepG2 cells” value in data set [2] is “not improve the survival”. In addition, the “induction in collagen type I levels” value in data set [3] (25 nM for seven days, fluorescent intensity per area unit normalized to untreated cells) was determined as 7 fold. Besides, the “intracellular collagen type I” value in data set [3] (25 nM once daily for seven days) is “significant increase in intracellular collagen; also recorded: significant increase in collagen type I expression”. For the same compound, the “cell numbers / cell proliferation” value in data set [3] (25 nM once daily for seven days, senescent cells) was “significant increase in cell numbers; also recorded: induced cell proliferation”. Further, in data set [4], the “allergenicity in RIPT” value was “hypoallergenic”. Besides, in the data set with C57BL/6J mice, the “strength (fore limb grip force)” value was “Increases Endurance and Strength”.
